Patent US5068248A, “N-alkenyl-3-hydroxybenzo[b]thiophene-2-carboxamide derivatives as dual cyclooxygenase and lipoxygenase inhibitors” (Merck & Co., Inc., priority 1989, dated 1991)
Where two headings read alike, the source gives them in different places.

Tests used:
[1] = system: indomethacin-induced gastric lesions; format: in vivo, Male Sprague-Dawley rats; settings: for No. Gastric Lesions: Mean + S.E.M.
Method: Male Sprague-Dawley rats, 130-150 g each, were sorted into groups for assay. The rats were fasted for 24 hours.
Several hours after the administration of compound A, the animals are sacrificed, the stomachs removed, excises along the inner curvature, washed carefully with cool tap water and placed in 0.9% saline. When all groups have been processed, the mucosal region of the stomachs are examined under a magnifying lens and scored according to the total number of lesions present. Group scores represent the mean score of animals in that group. The effect of Compound A on indomethacin-induced gastric lesions is shown below in Table 6: […]

PAF-induced hyperalgesia = experiment: Platelet Activating Factor (PAF) Induced Hyperalgesia in the Rat; format: in vivo, female Sprague-Dawley rats; settings: for Effect in PAF-induced hyperalgesia assay: p.o.; for responders at 30 mg/kg: Rattus norvegicus, read-out: % Rats Exhibiting Analgesia; for Vocalization Threshold: mean in inflamed paw 3 hr after PAF; for % Analgesia: percentage of animals with V.T. greater than 200% of vehicle-treated controls
Method: 1. Platelet Activating Factor. Induced Hyperalgesia in the Rat.
Groups of 10 female Sprague-Dawley rats, 35-50 g (Taconic Farms), were fasted overnight prior to testing. Hyperalgesia was induced in the rat by the subplantar injection of 1 ug PAF in physiological saline. Pain threshold was measured by applying pressure to the plantar surface of the hindpaw by means of a compressed air driven piston with a 2 mm tip. Vocalization thresholds were obtained 3 hr after injection of the PAF. Compounds, prepared at various doses in 1% methylcellulose suspension, were administered perorally 30 min before PAF. For each drug treatment group, animals with response pressures in the inflamed paw of 200% of control was considered to be analgesic. The mean vocalization threshold for each group was also calculated.

[2] = system: adjuvant-induced arthritis (Mycobacterium butyricum); experiment: Developing Adjuvant-Induced Arthritis Assay in the Lewis Rat; format: in vivo, Female Lewis rats; parameters: Foot Swelling-Day 14: unit not given here; settings: for Adrenal Weight / Change Body Weight 0-21 days / Foot Swelling-Day 21 / Thymus Weight / Foot Swelling-Day 14: mean ± SEM; for Bone/Cartilage Destruction Score: score 0-3, 0 = 0 destruction, 3 = Maximum destruction; for Protection from bone/cartilage (hard tissue) destruction, X-ray: day 21, hindpaw joints, Compound A 3.0 and 10 mg/kg/day, Indomethacin 1 mg/kg/day
Method: 3. Adjuvant Arthritis Assay
During the development of adjuvant arthritis, the rats lose body weight, the thymus gland involutes and the adrenal gland weight increases.
Female Lewis rats (purchased from Charles River, Wilmington, MA) were sorted into groups of ten in the weight range 160-199 g. The rats were sensitized to Mycobacterium butyricum (Difco) by the subplantar injection of 0.1 ml light mineral oil (Lubinol, Purepac Pharmaceutical Co., Elizabeth, NJ) containing 0.5 mg of the Mycobacterium into the left hindpaw. The Mycobacterium suspension was prepared by grinding in a glass mortar followed by the addition of the appropriate volume of light mineral oil. The suspension was transferred to a glass vial and stirred for 15 minutes on a magnetic stirrer to obtain a uniform suspension. After sensitization the rats were returned to metronic wire-bottomed cages and allowed food and water ad libitum with the food placed on the bottom of the cages for easy access. […] Rats received compound daily perorally as a suspension in 0.25% agar starting on the day of sensitization. Disease was quantitated by measuring the volume of the noninjected hindpaw by mercury displacement on days 0, 14 and 21. On day 21 (at the termination of the experiment) x-rays of the noninjected hindpaw were taken using a Phillips dental x-ray machine. Total body weight was determined on days 0 and 21 and at the termination of the experiment the thymus was removed and weighed. The statistical significance of the data was determined using Students t test.

PBQ-induced writhing = experiment: Phenylbenzoquinone (PBQ)-induced writhing in the Mouse; format: in vivo, female mice (CD-1); settings: for ED50: Mus musculus, po; for % Inhibition: writhing
Method: 2. PHENYLBENZOQUINONE (PBQ)-induced writhing in the Mouse […] Groups of 10 female mice (CD-1, Charles River Breeding Laboratories), weighing 20-25 g were fasted overnight prior to experiments. […] The number of writhes for each animal was recorded and the group means and standard errors were calculated. The means obtained from the drug treated groups were compared to the vehicle control means values and percent inhibition of writhing was calculated. ED50 values were calculated by regression analysis.

[3] = system: gastric acid secretion / gastric cytoprotection; settings: S. Szabo et al., Experimentia, 38, 254, 1982; cited from earlier work
[4] = Platelet, po, 3 h, Table 2, 30 mg/kg p.o.

COc1ccc2c(c1)c(CC(=O)O)c(C)n2C(=O)c1ccc(Cl)cc1 [Indomethacin, reference compound]
No. Gastric Lesions ([1]; indomethacin alone 10.0 mg/kg P.O.): 12.6 ± 4.4 | % Rats Exhibiting Analgesia (PAF-induced hyperalgesia; Table 2, 10 mg/kg p.o.): 10% | Effect in PAF-induced hyperalgesia assay (PAF-induced hyperalgesia; rat): completely ineffective | % Inhibition Foot Swelling-Day 14 ([2]; 1.0 mg/kg/day P.O.): 87% | % Inhibition Foot Swelling-Day 21 ([2]; 1.0 mg/kg/day P.O.): 88% | Adrenal Weight ([2]; 1.0 mg/kg/day P.O.): 82.7 ± 2.8 mg | Change Body Weight 0-21 days ([2]; 1.0 mg/kg/day P.O.): 0.7 ± 3.4 gm | Foot Swelling-Day 21 ([2]; 1.0 mg/kg/day P.O.): 190 ± 38 | Thymus Weight ([2]; 1.0 mg/kg/day P.O.): 359.6 ± 17.9 mg | Bone/Cartilage Destruction Score ([2]; 1.0 mg/kg/day P.O.): 0.1 | Protection from bone/cartilage (hard tissue) destruction, X-ray [2]: virtually complete protection from hard tissue destruction

CC(C)Cc1ccc(C(C)C(=O)O)cc1 (stereo not shown) [Ibuprofen, reference compound]
ED50 (PBQ-induced writhing): 9 mg/kg | responders at 30 mg/kg (PAF-induced hyperalgesia; [4]): 10% | Effect in PAF-induced hyperalgesia assay (PAF-induced hyperalgesia; rat): completely ineffective

CC1=C(CC(=O)O)c2cc(F)ccc2/C1=C\c1ccc([S+](C)[O-])cc1 (stereo not shown) [Sulindac, reference compound]
responders at 30 mg/kg (PAF-induced hyperalgesia; [4]): 10%

CN1C(C(=O)Nc2ccccn2)=C(O)c2ccccc2S1(=O)=O [Piroxicam, reference compound]
ED50 (PBQ-induced writhing): 2 mg/kg | responders at 30 mg/kg (PAF-induced hyperalgesia; [4]): 0% | Effect in PAF-induced hyperalgesia assay (PAF-induced hyperalgesia; rat): completely ineffective

CCCCC[C@H](O)/C=C/[C@@H]1[C@@H](C/C=C\CCCC(=O)O)[C@H](O)C[C@H]1O [protaglandin F2B]
Gastric cytoprotection [3]: does induce gastric cytoprotection | Inhibition of gastric acid secretion [3]: does not inhibit gastric acid secretion

O=C(O)c1cc(-c2ccc(F)cc2F)ccc1O [Diflunisal, reference compound]
responders at 30 mg/kg (PAF-induced hyperalgesia; [4]): 10%

CC(C(=O)O)c1ccc2oc(-c3ccc(Cl)cc3)nc2c1 (stereo not shown) [Benoxaprofen, reference compound]
responders at 30 mg/kg (PAF-induced hyperalgesia; [4]): 10% | Effect in PAF-induced hyperalgesia assay (PAF-induced hyperalgesia; rat): completely ineffective

O=C(NC=C(c1ccccc1)c1cccs1)c1sc2ccc(C(F)(F)F)cc2c1O [Compound A, 3-hydroxy-5-trifluoromethyl-N-[2-phenyl-2-(2-thienyl)]-benzo[b]thiophene-2-carboxamide]
ED50 (PBQ-induced writhing): 1 mg/kg | Analgesic activity compared with standard drugs (PBQ-induced writhing; mouse, PBQ writhing, p.o.): equivalent to piroxicam and greater than ibuprofen | % Inhibition (PBQ-induced writhing; mouse, 0.1 mg/kg p.o. 1 hr before PBQ): 9 ± 3% | % Inhibition (PBQ-induced writhing; mouse, 0.3 mg/kg p.o. 1 hr before PBQ): 10 ± 5% | % Inhibition (PBQ-induced writhing; mouse, 1.0 mg/kg p.o. 1 hr before PBQ): 39 ± 13% | % Inhibition (PBQ-induced writhing; mouse, 3.0 mg/kg p.o. 1 hr before PBQ): 78 ± 7% | % Inhibition of Lesions ([1]; 0.1 mg/kg P.O.): 47% | No. Gastric Lesions ([1]; 0.1 mg/kg P.O., indomethacin-induced (10 mg/kg)): 6.7 ± 4.1 | % Inhibition of Lesions ([1]; 0.3 mg/kg P.O.): 60% | No. Gastric Lesions ([1]; 0.3 mg/kg P.O., indomethacin-induced (10 mg/kg)): 5.0 ± 3.1 | % Inhibition of Lesions ([1]; 1.0 mg/kg P.O.): 52% | No. Gastric Lesions ([1]; 1.0 mg/kg P.O., indomethacin-induced (10 mg/kg)): 6.1 ± 5.5 | % Inhibition of Lesions ([1]; 10.0 mg/kg P.O.): 81% | No. Gastric Lesions ([1]; 10.0 mg/kg P.O., indomethacin-induced (10 mg/kg)): 2.4 ± 1.1 | ED50 (PAF-induced hyperalgesia; Platelet, po, 3 h, rat, dose required to raise VT to greater than 200% of vehicle-treated control in 50% of animals, confidence limits 0.11-0.3): 0.19 mg/kg | % Rats Exhibiting Analgesia (PAF-induced hyperalgesia; Table 2, 0.1 mg/kg p.o.): 50% | Vocalization Threshold (PAF-induced hyperalgesia; rat, 0.001 mg/kg p.o. 30 min before PAF): 10.2 mmHg | % Analgesia (PAF-induced hyperalgesia; rat, 0.001 mg/kg p.o.): 10% | Vocalization Threshold (PAF-induced hyperalgesia; rat, 0.01 mg/kg p.o. 30 min before PAF): 13.3 mmHg | % Analgesia (PAF-induced hyperalgesia; rat, 0.01 mg/kg p.o.): 25% | Vocalization Threshold (PAF-induced hyperalgesia; rat, 0.03 mg/kg p.o. 30 min before PAF): 13.0 mmHg | % Analgesia (PAF-induced hyperalgesia; rat, 0.03 mg/kg p.o.): 30% | Vocalization Threshold (PAF-induced hyperalgesia; rat, 0.1 mg/kg p.o. 30 min before PAF): 16.9 mmHg | % Analgesia (PAF-induced hyperalgesia; rat, 0.1 mg/kg p.o.): 50% | Vocalization Threshold (PAF-induced hyperalgesia; rat, 0.3 mg/kg p.o. 30 min before PAF): 17.6 mmHg | % Analgesia (PAF-induced hyperalgesia; rat, 0.3 mg/kg p.o.): 50% | Vocalization Threshold (PAF-induced hyperalgesia; rat, 1.0 mg/kg p.o. 30 min before PAF): 20.1 mmHg | % Analgesia (PAF-induced hyperalgesia; rat, 1.0 mg/kg p.o.): 67% | Vocalization Threshold (PAF-induced hyperalgesia; rat, 3.0 mg/kg p.o. 30 min before PAF): 18.3 mmHg | % Analgesia (PAF-induced hyperalgesia; rat, 3.0 mg/kg p.o.): 70% | % Inhibition Foot Swelling-Day 14 ([2]; 3.0 mg/kg/day P.O.): 56% | % Inhibition Foot Swelling-Day 21 ([2]; 3.0 mg/kg/day P.O.): 43% | Adrenal Weight ([2]; 3.0 mg/kg/day P.O.): 74.6 ± 3.3 mg | Change Body Weight 0-21 days ([2]; 3.0 mg/kg/day P.O.): -14.7 ± 3.2 gm | Foot Swelling-Day 14 ([2]; 3.0 mg/kg/day P.O.): 449 ± 83 | Foot Swelling-Day 21 ([2]; 3.0 mg/kg/day P.O.): 921 ± 125 | Thymus Weight ([2]; 3.0 mg/kg/day P.O.): 161.0 ± 17.7 mg | Bone/Cartilage Destruction Score ([2]; 3.0 mg/kg/day P.O.): 2.6 | Effect on thymus weight loss ([2]; 10 mg/kg/day): inhibited the loss in weight of the thymus | % Inhibition Foot Swelling-Day 14 ([2]; 10.0 mg/kg/day P.O.): 73% | % Inhibition Foot Swelling-Day 21 ([2]; 10.0 mg/kg/day P.O.): 66% | Adrenal Weight ([2]; 10.0 mg/kg/day P.O.): 91.8 ± 2.7 mg | Change Body Weight 0-21 days ([2]; 10.0 mg/kg/day P.O.): -12.2 ± 2.9 gm | Foot Swelling-Day 14 ([2]; 10.0 mg/kg/day P.O.): 279 ± 39 | Foot Swelling-Day 21 ([2]; 10.0 mg/kg/day P.O.): 554 ± 67 | Thymus Weight ([2]; 10.0 mg/kg/day P.O.): 241.5 ± 17.1 mg | Bone/Cartilage Destruction Score ([2]; 10.0 mg/kg/day P.O.): 1.1 | Effect on body weight loss ([2]; both dose levels (3.0 and 10 mg/kg/day)): significantly inhibited body weight loss | Inhibition of swelling of the noninjected hindpaw ([2]; chronic (21 days)): marked inhibition of swelling of the noninjected hindpaw | Protection from bone/cartilage (hard tissue) destruction, X-ray [2]: protection of the bone and cartilage destruction was only seen at the 10 mg/kg day dose level | ED50 ([2]; po, 336 h, rat, p.o., swelling of noninjected hindpaw, day 14): 3 mg/kg

COc1ccc2cc([C@H](C)C(=O)O)ccc2c1 [Naproxen, reference compound]
% Rats Exhibiting Analgesia (PAF-induced hyperalgesia; Table 2, 30 mg/kg p.o.): 10%

CC(=O)Oc1ccccc1C(=O)O [Aspirin, reference compound]
% Rats Exhibiting Analgesia (PAF-induced hyperalgesia; Table 2, 100 mg/kg p.o.): 10%
